Literature values in US20130261032A1, “ADDITIVE FOR SUBTERRANEAN TREATMENT” (SCHLUMBERGER TECHNOLOGY CORPORATION, priority 2012, published 2013).
Like-named read-outs stand apart in the source and are kept apart here.

Structure (SMILES): CCO [ethanol]
- acute oral toxicity, LD50 (in vivo, po): 7060 mg/kg

Structure (SMILES): C[N+](C)(C)CC(=O)[O-] [TMG, trimethyl glycine]
- acute oral toxicity, LD50 (oral): greater than 10,000 mg/kg

Structure (SMILES): CC(O)CO (stereo not drawn) [propylene glycol]
- acute oral toxicity, LD50 (oral): 20,000 mg/kg
